# Measured values reported in patent US10058570B2 (priority 2007, dated 2018).
# Where “and” joins values, the source holds several entries; their conditions need not be identical. Equal entries are not always repeated. Where two headings read alike, the source gives them in different places. Marks after values point to notes of the source that are not given here.
# What was measured:
# [1] = tested on: formalin-induced hind paw licking; format: in vivo, mouse; settings: for Hind paw licking time (Seconds) (Mean ± SEM): IP, mean (X)
# [2] = tested on: developing type II collagen arthritis
# [3] = tested on: acetic acid-induced writhing responses; settings: mouse, in vivo
# [4] = tested on: lipopolysaccharide-induced septic shock; format: in vivo, mouse
# [5] = tested on: LPS-induced neutrophilia in lung tissues; settings: mouse, in vivo
# [6] = tested on: reaction of host lymphocytes to alloantigen; settings: mouse, in vivo, 10 mg/kg
# [7] = tested on: MRMT-1 tumor-induced bone osteolysis; settings: rat, in vivo
# [8] = arsenic trioxide study, IP 10 mg/kg
# [9] = arsenic trioxide study, IP, QD, 10 mg/kg
# [10] = sodium meta arsenite study, oral QD, 0.075 mg/kg
molecule,measurement,setting,value
arsenic trioxide (As2O3),Hind paw licking time (Seconds) (Mean ± SEM),"[1]; 1 mg/kg, 0-5 minutes after formalin",74.6 s
same,Hind paw licking time (Seconds) (Mean ± SEM),"[1]; 1 mg/kg, 5-10 minutes after formalin",2.6* Seconds
same,Hind paw licking time (Seconds) (Mean ± SEM),"[1]; 1 mg/kg, 10-15 minutes after formalin",15.6* Seconds
same,Hind paw licking time (Seconds) (Mean ± SEM),"[1]; 1 mg/kg, 15-20 minutes after formalin",40.0 s
same,Hind paw licking time (Seconds) (Mean ± SEM),"[1]; 1 mg/kg, 20-25 minutes after formalin",57.1 s
same,Hind paw licking time (Seconds) (Mean ± SEM),"[1]; 1 mg/kg, 25-30 minutes after formalin",53.5 s
same,Hind paw licking time (Seconds) (Mean ± SEM),"[1]; 1 mg/kg, 30-35 minutes after formalin",30.0 s
same,Hind paw licking time (Seconds) (Mean ± SEM),"[1]; 10 mg/kg, 0-5 minutes after formalin",9.0* Seconds
same,Hind paw licking time (Seconds) (Mean ± SEM),"[1]; 10 mg/kg, 5-10 minutes after formalin",0.3* Seconds
same,Hind paw licking time (Seconds) (Mean ± SEM),"[1]; 10 mg/kg, 10-15 minutes after formalin",0.0* Seconds
same,Hind paw licking time (Seconds) (Mean ± SEM),"[1]; 10 mg/kg, 15-20 minutes after formalin",0.0* Seconds
same,Hind paw licking time (Seconds) (Mean ± SEM),"[1]; 10 mg/kg, 20-25 minutes after formalin",0.0* Seconds
same,Hind paw licking time (Seconds) (Mean ± SEM),"[1]; 10 mg/kg, 25-30 minutes after formalin",0.0* Seconds
same,Hind paw licking time (Seconds) (Mean ± SEM),"[1]; 10 mg/kg, 30-35 minutes after formalin",0.0 s
same,inhibition of the licking response to formalin challenge,"[1]; intraperitoneal, 10 mg/kg, intervals 0-5, 5-10, 10-15, 15-20, 20-25 and 25-30 minutes",significant inhibition
same,response (inhibition of licking) to formalin challenge,"[1]; intraperitoneal, lower dose 1 mg/kg",limited to the intervals of 5-10 and 10-15 minutes after challenge
same,Relative thymus weights,"[2]; arsenic trioxide study, 10 mg/kg",reduced below arthritic controls
same,"Relative liver weights, increase above arthritic controls","[2]; arsenic trioxide study, IP 1 mg/kg",6%
same,"Relative liver weights, increase above arthritic controls",[2]; [8],10%
same,"Relative spleen weights, reduction as compared to disease control rats",[2]; [8],21%
same,inhibition of decrease in ankle diameter,"[2]; arsenic trioxide study, IP 10 mg/kg, days 10-17",Significant inhibition
same,Inhibition of ankle diameter AUC,[2]; [9],80%
same,Inhibition of final paw weight,[2]; [9],71%
same,inhibition of body weight loss,[2]; [9],55%
"O=[As][O-].[Na+] [sodium meta arsenite, sodium meta arsenite (NaAsO2)]",analgesic activity,"[1]; mouse, in vivo",significant analgesic activity
same,analgesic effect,[3],no analgesic effect
same,analgesic activity,"[3]; po, 10 mg/kg",significant analgesic activity
same,number of writhing responses (average),"[3]; po, 10 mg/kg",7 writhing events
same,IL-1β secretion,"[4]; mouse, in vivo",significant inhibition
same,IL-6 secretion,"[4]; mouse, in vivo",inhibition
same,protection against LPS-induced septic shock,"[4]; mouse, in vivo",moderate protection
same,secretion of KC,"[4]; mouse, in vivo, po",no effect
same,secretion of MCP-1,"[4]; mouse, in vivo, po",no effect
same,secretion of TNF-α,"[4]; mouse, in vivo, po",no effect
same,KC in lavage fluid,[5],significant reduction
same,TNF-α in lavage fluid,[5],significant suppression
same,cell counts in lavage fluid,[5],not associated with any significant changes
same,monocyte count in lavage fluid,[5],significant decrease
same,neutrophil (differential) count in lavage fluid,[5],significant decrease
same,"secretion of 1L-1β, Il-6 or MCP-1 observed in brachoaveolar lavage fluid",[5],At no concentration
same,white blood cell (total) count in lavage fluid,[5],significant decrease
same,immunosuppressive effect in animals treated with alloantigen,[6],slight immunosuppressive effect
same,ameliorating tumor-induced osteoclasts and osteolysis,[7],strong positive trend
same,improving the various aspects of cancer-induced bone damage (histopathology),[7],positive trend
same,inhibition of body weight loss (due to arthritis),"[2]; rat, in vivo",100%
same,"Relative thymus weights, reduction as compared to disease controls","[2]; rat, in vivo, 1 mg/kg",20%
same,"Calculated ED50 value, ankle diameter (AUC)","[2]; rat, in vivo, po",8.499 mg/kg
same,"Calculated ED50 value, ankle histopathology","[2]; rat, in vivo, po",7.080 mg/kg
same,"Calculated ED50 value, body weight loss","[2]; rat, in vivo, po",1.929 mg/kg
same,"Calculated ED50 value, final paw weight","[2]; rat, in vivo, po",7.116 mg/kg
same,"Calculated ED50 value, knee histopathology","[2]; rat, in vivo, po",7.924 mg/kg
same,Inhibition of ankle diameter (AUC),"[2]; rat, in vivo, po, 10 mg/kg",73%
same,Inhibition of ankle diameter AUC,"[2]; rat, in vivo, po, 10 mg/kg",66%
same,Inhibition of final paw weight,"[2]; rat, in vivo, po, 10 mg/kg",83% and 69%
same,"Relative liver weights, increase above arthritic controls","[2]; rat, in vivo, po, 10 mg/kg",14%
same,"Relative liver weights, increase over disease controls","[2]; rat, in vivo, po, 10 mg/kg",17%
same,"Relative spleen weights, reduction as compared to disease control rats","[2]; rat, in vivo, po, 10 mg/kg",10%
same,inhibition of ankle diameter,"[2]; rat, in vivo, po, 10 mg/kg",Significant inhibition
same,inhibition of ankle histopathology parameters,"[2]; rat, in vivo, po, 10 mg/kg",85%
same,inhibition of body weight loss,"[2]; rat, in vivo, po, 10 mg/kg",85%
same,inhibition of decrease in ankle diameter,"[2]; rat, in vivo, po, 10 mg/kg",Significant inhibition
same,inhibition of knee histopathologic parameters,"[2]; rat, in vivo, po, 10 mg/kg",87%
same,Inhibition of body weight loss from day 0,"adjuvant arthritis; rat, in vivo",2-14%
same,"Relative liver weights, reduction","adjuvant arthritis; rat, in vivo",7-29%
same,tolerability,"adjuvant arthritis; rat, in vivo",well tolerated
same,"Calculated ED50, ankle diameter AUC","adjuvant arthritis; rat, in vivo, po",10.62 mg/kg
same,"Calculated ED50, ankle measurements (dorsal to ventral)","adjuvant arthritis; rat, in vivo, po",13.65 mg/kg
same,"Calculated ED50, final paw weight","adjuvant arthritis; rat, in vivo, po",1421 mg/kg
same,"Calculated ED50, histopathologic bone resorption","adjuvant arthritis; rat, in vivo, po",9.243 mg/kg
same,"Calculated ED50, histopathologic inflammation","adjuvant arthritis; rat, in vivo, po",17.25 mg/kg
same,inhibition of histopathologic inflammation,"adjuvant arthritis; rat, in vivo, po",76%
same,inhibition of lymphoid atrophy,"adjuvant arthritis; rat, in vivo, po",29%
same,inhibition of splenic inflammation,"adjuvant arthritis; rat, in vivo, po",32%
same,inhibition of ankle diameter increase,"adjuvant arthritis; rat, in vivo, po, 3 mg/kg",Significant inhibition
same,"Relative spleen weights, reduction toward normal","adjuvant arthritis; rat, in vivo, po, 10 mg/kg",50%
same,inhibition of ankle diameter AUC increase,"adjuvant arthritis; rat, in vivo, po, 10 mg/kg",46%
same,inhibition of ankle diameter increase,"adjuvant arthritis; rat, in vivo, po, 10 mg/kg",Significant inhibition
same,inhibition of ankle measurements (dorsal to ventral),"adjuvant arthritis; rat, in vivo, po, 10 mg/kg",36%
same,inhibition of final paw weight increase due to arthritis,"adjuvant arthritis; rat, in vivo, po, 10 mg/kg",28%
same,inhibition of histopathologic bone resorption,"adjuvant arthritis; rat, in vivo, po, 10 mg/kg",59%
same,inhibition of histopathologic inflammation,"adjuvant arthritis; rat, in vivo, po, 10 mg/kg",24%
same,Mean body weight loss over time,"adjuvant arthritis; rat, in vivo, po, 30 mg/kg",significantly increased
same,"Relative spleen weights, reduction toward normal","adjuvant arthritis; rat, in vivo, po, 30 mg/kg",91%
same,inhibition of ankle diameter AUC increase,"adjuvant arthritis; rat, in vivo, po, 30 mg/kg",83%
same,inhibition of ankle diameter increase,"adjuvant arthritis; rat, in vivo, po, 30 mg/kg",Significant inhibition
same,inhibition of ankle measurements (dorsal to ventral),"adjuvant arthritis; rat, in vivo, po, 30 mg/kg",81%
same,inhibition of final paw weight increase due to arthritis,"adjuvant arthritis; rat, in vivo, po, 30 mg/kg",83%
same,inhibition of histopathologic bone resorption,"adjuvant arthritis; rat, in vivo, po, 30 mg/kg",81%
same,inhibition of lymphoid atrophy,"adjuvant arthritis; rat, in vivo, po, 30 mg/kg",39%
same,inhibition of splenic inflammation,"adjuvant arthritis; rat, in vivo, po, 30 mg/kg",89%
same,toxicity (based on body weight changes),"adjuvant arthritis; rat, in vivo, po, 30 mg/kg",toxic
"CN(Cc1cnc2nc(N)nc(N)c2n1)c1ccc(C(=O)N[C@@H](CCC(=O)O)C(=O)O)cc1 [MTX, methotrexate, reference compound]","Relative spleen weights, reduction as compared to disease control rats","[2]; rat, in vivo, po, 0.075 mg/kg",10%
same,inhibition of ankle diameter,"[2]; sodium meta arsenite study, oral 0.075 mg/kg, days 10-17",Significant inhibition
same,inhibition of body weight loss (due to arthritis),"[2]; sodium meta arsenite study, oral QD days 0-16, 0.075 mg/kg",96%
same,Inhibition of ankle diameter (AUC),[2]; [10],97%
same,Inhibition of final paw weight,[2]; [10],95%
same,inhibition of ankle histopathology parameters,[2]; [10],97%
same,inhibition of knee histopathologic parameters,[2]; [10],100%
same,Inhibition of body weight loss from day zero,adjuvant arthritis; PO 0.1 mg/kg,91%
same,"Relative liver weights, reduction toward normal",adjuvant arthritis; PO 0.1 mg/kg,100%
same,inhibition of ankle diameter AUC increase,adjuvant arthritis; PO 0.1 mg/kg,96%
same,inhibition of ankle measurements (dorsal to ventral),adjuvant arthritis; PO 0.1 mg/kg,97%
same,inhibition of final paw weight increase due to arthritis,adjuvant arthritis; PO 0.1 mg/kg,99%
same,inhibition of histopathologic bone resorption,adjuvant arthritis; PO 0.1 mg/kg,100%
same,inhibition of histopathologic inflammation,adjuvant arthritis; PO 0.1 mg/kg,99%
same,inhibition of lymphoid atrophy,adjuvant arthritis; PO 0.1 mg/kg,50%
same,inhibition of splenic inflammation,adjuvant arthritis; PO 0.1 mg/kg,100%
same,inhibition of ankle diameter increase,"adjuvant arthritis; PO 0.1 mg/kg, significant days 8-14",Significant inhibition
same,Mean body weight decrease over time (due to arthritis),"adjuvant arthritis; PO 0.1 mg/kg, significant days 10-14",inhibited
same,"Relative spleen weights, reduction toward normal",adjuvant arthritis; PO 0.01,77%
"CC(=O)OCC(=O)[C@@]1(O)[C@H](C)C[C@H]2[C@@H]3CCC4=CC(=O)C=C[C@]4(C)[C@@]3(F)[C@@H](O)C[C@@]21C [Dexamehasone 21-acetate, reference compound]",% Protection,"[4]; PO 3 mg/kg, mortality over 3 days after LPS 30 mg/kg IP",(75) %
"CN1CC[C@]23c4c5ccc(O)c4O[C@H]2[C@@H](O)C=C[C@H]3[C@H]1C5 [Morphine, morphine, reference compound]",analgesic effect,"[1]; mouse, in vivo",associated with analgesic effect
same,analgesic effect,"[1]; mouse, in vivo, po, 30 mg/kg",significant analgesic effect
